#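 GI50 is the concentration that inhibits growth by half. TGI is the concentration that stops growth completely.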
# What was measured:
# Test in all cases: NCI tumour cell line growth inhibition, 384-well format
# [1] = test system: 786-0 renal
# [2] = test system: A498 renal
# [3] = test system: A549 NSCLC
# [4] = test system: ACHN renal
# [5] = test system: BT-549 breast
# [6] = test system: CAKI-1 renal
# [7] = test system: CCRF-CEM leukemia
# [8] = test system: COLO 205 colon
# [9] = test system: DU-145 prostate
# [10] = test system: EKVX NSCLC
# [11] = test system: HCC-2998 colon
# [12] = test system: HCT-116 colon
# [13] = test system: HCT-15 colon
# [14] = test system: HL-60(TB) leukemia
# [15] = test system: HOP-62 NSCLC
# [16] = test system: HOP-92 NSCLC
# [17] = test system: HS 578T breast
# [18] = test system: HT29 colon
# [19] = test system: IGROV1 ovarian
# [20] = test system: K-562 leukemia
# [21] = test system: KM12 colon
# [22] = test system: LOX IMVI melanoma
# [23] = test system: M14 melanoma
# [24] = test system: MALME-3M melanoma
# [25] = test system: MCF7 breast
# [26] = test system: MDA-MB-231 breast
# [27] = test system: MDA-MB-468 breast
# [28] = test system: MOLT-4 leukemia
# [29] = test system: NCI-H226 lung
# [30] = test system: NCI-H23 lung
# [31] = test system: NCI-H322M lung
# [32] = test system: NCI-H460 NSCLC
# [33] = test system: NCI-H522 lung
# [34] = test system: NCI/ADR-RES ovarian
# [35] = test system: OVCAR-3 ovarian
# [36] = test system: OVCAR-4 ovarian
# [37] = test system: OVCAR-5 ovarian
# [38] = test system: OVCAR-8 ovarian
# [39] = test system: PC-3 prostate
# [40] = test system: RPMI-8226 leukemia
# [41] = test system: RXF 393 renal
# [42] = test system: SF-268 CNS
# [43] = test system: SF-295 CNS
# [44] = test system: SF-539 CNS
# [45] = test system: SK-MEL-28 melanoma
# [46] = test system: SK-MEL-5 melanoma
# [47] = test system: SK-OV-3 ovarian
# [48] = test system: SN12C renal
# [49] = test system: SNB-19 CNS
# [50] = test system: SNB-75 CNS
# [51] = test system: SR leukemia
# [52] = test system: SW-620 colon
# [53] = test system: T-47D breast
# [54] = test system: TK-10 renal
# [55] = test system: U251 glioblastoma
# [56] = test system: UACC-257 melanoma
# [57] = test system: UO-31 renal
# [58] = test system: MDA-MB-435 melanoma
# [59] = test system: SK-MEL-2 melanoma
# [60] = test system: UACC-62 melanoma
smiles,measurement,setting,value
Cc1ccccc1CN1CC2=C(CCN(Cc3ccccc3)C2=O)N2CCN=C12,GI50,[1],4140 nM
same,TGI,[1],> 100000 nM
same,GI50,[2],4560 nM
same,TGI,[2],> 100000 nM
same,GI50,[3],4200 nM
same,TGI,[3],> 100000 nM
same,GI50,[4],6020 nM
same,TGI,[4],> 100000 nM
same,GI50,[5],4060 nM
same,TGI,[5],66400 nM
same,GI50,[6],3970 nM
same,TGI,[6],> 100000 nM
same,GI50,[7],1040 nM
same,TGI,[7],> 100000 nM
same,GI50,[8],2880 nM
same,TGI,[8],14100 nM
same,GI50,[9],3110 nM
same,TGI,[9],> 100000 nM
same,GI50,[10],3300 nM
same,TGI,[10],> 100000 nM
same,GI50,[11],2660 nM
same,TGI,[11],22800 nM
same,GI50,[12],1900 nM
same,TGI,[12],> 100000 nM
same,GI50,[13],1780 nM
same,TGI,[13],> 100000 nM
same,GI50,[14],186 nM
same,TGI,[14],547 nM
same,GI50,[15],1360 nM
same,TGI,[15],7900 nM
same,GI50,[16],4300 nM
same,TGI,[16],> 100000 nM
same,GI50,[17],2230 nM
same,TGI,[17],20200 nM
same,GI50,[18],12000 nM
same,TGI,[18],> 100000 nM
same,GI50,[19],53800 nM
same,TGI,[19],> 100000 nM
same,GI50,[20],631 nM
same,TGI,[20],> 100000 nM
same,GI50,[21],6870 nM
same,TGI,[21],> 100000 nM
same,GI50,[22],2090 nM
same,TGI,[22],88400 nM
same,GI50,[23],3280 nM
same,TGI,[23],> 100000 nM
same,GI50,[24],3690 nM
same,TGI,[24],10500 nM
same,GI50,[25],3120 nM
same,TGI,[25],> 100000 nM
same,GI50,[26],2830 nM
same,TGI,[26],9620 nM
same,GI50,[27],363 nM
same,TGI,[27],1320 nM
same,GI50,[28],1700 nM
same,TGI,[28],3390 nM
same,GI50,[29],3420 nM
same,TGI,[29],63100 nM
same,GI50,[30],2140 nM
same,TGI,[30],7970 nM
same,GI50,[31],3340 nM
same,TGI,[31],> 100000 nM
same,GI50,[32],2610 nM
same,TGI,[32],9290 nM
same,GI50,[33],2380 nM
same,TGI,[33],70900 nM
same,GI50,[34],1390 nM
same,TGI,[34],7800 nM
same,GI50,[35],2060 nM
same,TGI,[35],5710 nM
same,GI50,[36],1080 nM
same,TGI,[36],4990 nM
same,GI50,[37],3500 nM
same,TGI,[37],> 100000 nM
same,GI50,[38],796 nM
same,TGI,[38],> 100000 nM
same,GI50,[39],2810 nM
same,TGI,[39],> 100000 nM
same,GI50,[40],203 nM
same,TGI,[40],382 nM
same,GI50,[41],4170 nM
same,TGI,[41],28000 nM
same,GI50,[42],3990 nM
same,TGI,[42],> 100000 nM
same,GI50,[43],700 nM
same,TGI,[43],3170 nM
same,GI50,[44],3540 nM
same,TGI,[44],23300 nM
same,GI50,[45],4550 nM
same,TGI,[45],> 100000 nM
same,GI50,[46],1190 nM
same,TGI,[46],2900 nM
same,GI50,[47],3440 nM
same,TGI,[47],36900 nM
same,GI50,[48],3450 nM
same,TGI,[48],> 100000 nM
same,GI50,[49],2980 nM
same,TGI,[49],> 100000 nM
same,GI50,[50],2900 nM
same,TGI,[50],24900 nM
same,GI50,[51],1000 nM
same,TGI,[51],2450 nM
same,GI50,[52],5690 nM
same,TGI,[52],> 100000 nM
same,GI50,[53],2000 nM
same,TGI,[53],9660 nM
same,GI50,[54],6470 nM
same,TGI,[54],> 100000 nM
same,GI50,[55],1800 nM
same,TGI,[55],6210 nM
same,GI50,[56],1130 nM
same,TGI,[56],3110 nM
same,GI50,[57],5970 nM
same,TGI,[57],> 100000 nM
Nc1nc(Nc2ccc3c(c2)CC[C@@H](N2CCCC2)CC3)nn1-c1cc2c(nn1)-c1ccccc1CCC2,GI50,[1],456 nM
same,TGI,[1],1640 nM
same,GI50,[2],327 nM
same,TGI,[2],1190 nM
same,GI50,[3],1380 nM
same,TGI,[3],2700 nM
same,GI50,[4],431 nM
same,TGI,[4],1510 nM
same,GI50,[5],1080 nM
same,TGI,[5],2270 nM
same,GI50,[6],493 nM
same,TGI,[6],1720 nM
same,GI50,[8],1500 nM
same,TGI,[8],2840 nM
same,GI50,[9],939 nM
same,TGI,[9],2160 nM
same,GI50,[10],1020 nM
same,TGI,[10],2190 nM
same,GI50,[12],478 nM
same,TGI,[12],1730 nM
same,GI50,[13],564 nM
same,TGI,[13],1800 nM
same,GI50,[14],1210 nM
same,TGI,[14],2450 nM
same,GI50,[15],1020 nM
same,TGI,[15],2190 nM
same,GI50,[16],798 nM
same,TGI,[16],2070 nM
same,GI50,[17],262 nM
same,TGI,[17],1270 nM
same,GI50,[18],326 nM
same,TGI,[18],1080 nM
same,GI50,[19],418 nM
same,TGI,[19],1550 nM
same,GI50,[20],331 nM
same,TGI,[20],1210 nM
same,GI50,[21],1070 nM
same,TGI,[21],2290 nM
same,GI50,[23],451 nM
same,TGI,[23],1590 nM
same,GI50,[24],284 nM
same,TGI,[24],827 nM
same,GI50,[26],1630 nM
same,TGI,[26],3000 nM
same,GI50,[58],1020 nM
same,TGI,[58],2190 nM
same,GI50,[27],1450 nM
same,TGI,[27],2760 nM
same,GI50,[28],186 nM
same,TGI,[28],334 nM
same,GI50,[29],1450 nM
same,TGI,[29],2770 nM
same,GI50,[30],1330 nM
same,TGI,[30],2610 nM
same,GI50,[31],529 nM
same,TGI,[31],1770 nM
same,GI50,[32],360 nM
same,TGI,[32],1280 nM
same,GI50,[33],1270 nM
same,TGI,[33],2540 nM
same,GI50,[35],1150 nM
same,TGI,[35],2370 nM
same,GI50,[36],1480 nM
same,TGI,[36],2800 nM
same,GI50,[37],1630 nM
same,TGI,[37],3000 nM
same,GI50,[38],1520 nM
same,TGI,[38],2860 nM
same,GI50,[39],796 nM
same,TGI,[39],2050 nM
same,GI50,[41],25.9 nM
same,TGI,[41],545 nM
same,GI50,[42],1180 nM
same,TGI,[42],2410 nM
same,GI50,[43],634 nM
same,TGI,[43],1940 nM
same,GI50,[44],244 nM
same,TGI,[44],1110 nM
same,GI50,[59],415 nM
same,TGI,[59],1400 nM
same,GI50,[45],1400 nM
same,TGI,[45],2700 nM
same,GI50,[46],1060 nM
same,TGI,[46],2250 nM
same,GI50,[47],305 nM
same,TGI,[47],1240 nM
same,GI50,[48],346 nM
same,TGI,[48],1680 nM
same,GI50,[49],1590 nM
same,TGI,[49],2960 nM
same,GI50,[50],1140 nM
same,TGI,[50],2350 nM
same,GI50,[51],186 nM
same,TGI,[51],328 nM
same,GI50,[52],1140 nM
same,TGI,[52],2370 nM
same,GI50,[53],1210 nM
same,TGI,[53],2450 nM
same,GI50,[54],1010 nM
same,TGI,[54],2180 nM
same,GI50,[55],761 nM
same,TGI,[55],2020 nM
same,GI50,[56],182 nM
same,TGI,[56],368 nM
same,GI50,[60],773 nM
same,TGI,[60],2020 nM
same,GI50,[57],1040 nM
same,TGI,[57],2220 nM
